Our source for the IC50 values is US11046699B2, “Pyrazolo-pyrimidin-amino-cycloalkyl compounds and their therapeutic uses” (RAPT THERAPEUTICS, INC., priority 2018, dated 2021).

For one test, the target named is GCN2 (Homo sapiens, UniProt Q9P2K8). Briefly: GCN2 enzymatic endpoint assay: phosphorylation of GFP-eIF2α measured by TR-FRET (Lanthascreen). Type of test: biochemical. As to conditions: GCN2 biochemical IC50; 4 nM GCN2, 2 μM ATP, 80 nM GFP-eIF2α, 90 min RT; read-out: GCN2 activity. In outline: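 Phosphorylated eIF2α read by Lanthascreen TR-FRET (acceptor 520 nm over donor 495 nm) after EDTA stop. The reaction ran 90 min at room temperature on 80 nM GFP-eIF2α with 2 μM ATP.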
Chain of GCN2 (Q9P2K8 whole entry): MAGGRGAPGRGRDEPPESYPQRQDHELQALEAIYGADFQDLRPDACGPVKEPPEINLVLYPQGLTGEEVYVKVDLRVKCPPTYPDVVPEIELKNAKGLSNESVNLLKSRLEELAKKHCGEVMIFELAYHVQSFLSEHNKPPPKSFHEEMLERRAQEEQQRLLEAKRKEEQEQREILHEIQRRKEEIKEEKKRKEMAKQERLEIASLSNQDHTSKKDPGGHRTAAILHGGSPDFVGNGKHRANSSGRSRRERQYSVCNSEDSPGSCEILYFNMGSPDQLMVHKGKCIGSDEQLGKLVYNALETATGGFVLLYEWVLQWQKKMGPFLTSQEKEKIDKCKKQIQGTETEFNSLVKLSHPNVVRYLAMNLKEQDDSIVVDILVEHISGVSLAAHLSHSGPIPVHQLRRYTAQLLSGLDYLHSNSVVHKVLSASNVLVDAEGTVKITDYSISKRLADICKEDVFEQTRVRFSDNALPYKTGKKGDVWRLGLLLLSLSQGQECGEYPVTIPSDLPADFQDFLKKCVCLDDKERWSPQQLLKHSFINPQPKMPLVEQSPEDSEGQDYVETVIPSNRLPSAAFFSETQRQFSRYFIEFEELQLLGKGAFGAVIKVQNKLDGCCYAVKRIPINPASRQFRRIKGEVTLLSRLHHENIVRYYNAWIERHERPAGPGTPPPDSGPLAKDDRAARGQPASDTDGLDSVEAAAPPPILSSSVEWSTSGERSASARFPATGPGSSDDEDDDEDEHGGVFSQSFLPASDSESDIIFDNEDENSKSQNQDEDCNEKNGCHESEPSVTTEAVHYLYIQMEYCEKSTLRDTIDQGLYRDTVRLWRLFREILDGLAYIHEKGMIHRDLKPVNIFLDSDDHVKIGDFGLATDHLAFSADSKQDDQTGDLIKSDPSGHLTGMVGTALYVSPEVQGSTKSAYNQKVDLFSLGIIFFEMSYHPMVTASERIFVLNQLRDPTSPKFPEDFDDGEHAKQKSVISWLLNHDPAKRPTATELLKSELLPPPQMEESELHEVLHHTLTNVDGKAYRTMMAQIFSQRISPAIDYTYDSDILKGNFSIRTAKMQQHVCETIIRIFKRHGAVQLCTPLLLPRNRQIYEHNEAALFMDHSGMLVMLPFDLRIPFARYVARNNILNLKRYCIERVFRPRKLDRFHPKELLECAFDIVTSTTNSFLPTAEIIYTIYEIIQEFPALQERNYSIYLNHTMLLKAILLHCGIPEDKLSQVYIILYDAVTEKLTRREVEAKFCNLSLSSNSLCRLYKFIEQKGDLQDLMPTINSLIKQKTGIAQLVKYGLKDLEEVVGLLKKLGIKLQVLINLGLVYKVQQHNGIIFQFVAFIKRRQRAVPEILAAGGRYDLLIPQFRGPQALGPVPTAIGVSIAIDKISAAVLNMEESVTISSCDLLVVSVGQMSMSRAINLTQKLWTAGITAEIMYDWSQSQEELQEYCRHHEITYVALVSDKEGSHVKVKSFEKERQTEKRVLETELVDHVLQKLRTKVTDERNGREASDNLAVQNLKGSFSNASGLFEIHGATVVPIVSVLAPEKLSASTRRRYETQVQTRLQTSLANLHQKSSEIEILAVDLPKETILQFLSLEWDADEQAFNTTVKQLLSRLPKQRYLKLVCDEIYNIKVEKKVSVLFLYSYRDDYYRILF
With `CC[C@@H](N)c1cc(-n2nc(Br)c3cnc(N[C@@H]4CC[C@@](C)(C(=O)NC)C4)nc32)cc2nccnc12` [Example 66, (1R,3R)-3-((1-(8-((R)-1-aminopropyl)quinoxalin-6-yl)-3-bromo-1H-pyrazolo[3,4-d]pyrimidin-6-yl)amino)-N,1-dimethylcyclopentane-1-carboxamide], the IC50 is less than 25 nM. On to `CNC(=O)[C@]1(C)CC[C@@H](Nc2ncc3c(Br)nn(-c4ccc5ncn(C)c(=O)c5c4)c3n2)C1` [Example 72, (1R,3R)-3-((3-bromo-1-(3-methyl-4-oxo-3,4-dihydroquinazolin-6-yl)-1H-pyrazolo[3,4-d]pyrimidin-6-yl)amino)-N,1-dimethylcyclopentane-1-carboxamide], for which the IC50 lay within 25 to 200 nM. On the same count and under the same terms, the result for `CNC(=O)[C@]1(C)CC[C@@H](Nc2ncc3c(Br)nn(-c4cc(Cl)cc([C@H](C)N)c4)c3n2)C1` [Example 64, (1R,3R)-3-((1-(3-((S)-1-aminoethyl)-5-chlorophenyl)-3-bromo-1H-pyrazolo[3,4-d]pyrimidin-6-yl)amino)-N,1-dimethylcyclopentane-1-carboxamide] reads less than 25 nM; that for `CNC(=O)[C@]1(C)CC[C@@H](Nc2ncc3c(Br)nn(-c4ccc(Cl)c([C@H](C)N)c4)c3n2)C1` [Example 65, (1R,3R)-3-((1-(3-((S)-1-aminoethyl)-4-chlorophenyl)-3-bromo-1H-pyrazolo[3,4-d]pyrimidin-6-yl)amino)-N,1-dimethylcyclopentane-1-carboxamide], less than 25 nM.

Staying with this test, now noted: tested as described in Example 77; compound and/or hydrochloride, dihydrochloride or trifluoroacetic acid salt; read-out: IC 50 Activity.
In the case of `CNC(=O)[C@]1(C)CC[C@@H](Nc2ncc3c(Br)nn(-c4ccc(-c5nnc(C(C)(C)C)o5)cc4)c3n2)C1` [(1R,3R)-3-[[3-bromo-1-[4-(5-tert-butyl-1,3,4-oxadiazol-2-yl)phenyl]pyrazolo[3,4-d]pyrimidin-6-yl]amino]-N,1-dimethyl-cyclopentane-carboxamide], the IC50 lay within 25 to 200 nM. The same measure, in the same setting: the result for `CNC(=O)[C@]1(C)CC[C@@H](Nc2ncc3c(Br)nn(-c4cc(Br)cc(C(C)O)c4)c3n2)C1` (stereo partly shown) reads 25 to 200 nM. As to `Fc1cc(-n2nc(Br)c3cnc(NC4COC5(CCNCC5)C4)nc32)cc2cccnc12` (stereo not shown) [N-[3-bromo-1-(8-fluoro-6-quinolyl)pyrazolo [3,4-d]pyrimidin-6-yl]-1-oxa-8-azaspiro[4.5] decan-3-amine], the IC50 fell in the range of 25 to 200 nM. On the same count and under the same terms, the result for `COCCNC(=O)[C@@H]1CCC(Nc2ncc3c(Br)nn(-c4ccc(-c5nnc(C)s5)cc4)c3n2)C1` (stereo partly drawn) [(1R)-3-[[3-bromo-1-[4-(5-methyl-1,3,4-thiadiazol-2-yl)phenyl]pyrazolo[3,4-d]pyrimidin-6-yl]amino]-N-(2-methoxy-ethyl)cyclopentanecarboxamide] reads 25 to 200 nM; that for `CNC(=O)[C@]1(C)CC[C@@H](Nc2ncc3c(Br)nn(-c4ccc(-c5nnc(C)o5)c(F)c4)c3n2)C1` [(1R,3R)-3-[[3-bromo-1-[3-fluoro-4-(5-methyl-1,3,4-oxadiazol-2-yl)phenyl]pyrazolo[3,4-d]pyrimidin-6-yl]amino]-N,1-dimethyl-cyclopentanecarboxamide], 25 to 200 nM.

Regarding `CNC(=O)[C@]1(C)CC[C@@H](Nc2ncc3c(Br)nn(-c4ccc5c(c4)C(N)CO5)c3n2)C1` (stereo partly shown), the IC50 is 25 to 200 nM. Still for that read-out and setting: the result for `O=C(NC[C@@H]1COCCN1)[C@@H]1CC[C@@H](Nc2ncc3c(Br)nn(-c4ccc5ncccc5c4)c3n2)C1` [(1R,3R)-3-((3-bromo-1-(quinolin-6-yl)-1H-pyrazolo[3,4-d]pyrimidin-6-yl)amino)-N-(((R)-morpholin-3-yl)methyl)cyclopentane-1-carboxamide] reads 200 to 500 nM; that for `N#Cc1cc(-n2nc(Br)c3cnc(N[C@@H]4CC[C@@H](C(=O)NCC5(F)CNC5)C4)nc32)cc2cccnc12`, less than 25 nM.

Turning to `CCS(=O)(=O)N1Cc2cc(-n3nc(Br)c4cnc(N[C@@H]5CC[C@@](C)(C(=O)NC)C5)nc43)cnc2C1` [(1R,3R)-3-[[3-bromo-1-(6-ethylsulfonyl-5,7-dihydropyrrolo[3,4-b]pyridin-3-yl)pyrazolo[3,4-d]pyrimidin-6-yl]amino]-N,1-dimethyl-cyclopentanecarboxamide], the IC50 was in the range of 25 to 200 nM. Still for that read-out and setting: the result for `CNC(=O)[C@]1(C)CC[C@@H](Nc2ncc3c(Br)nn(-c4cccc(NC(=O)c5ccn[nH]5)c4)c3n2)C1` [N-[3-[3-bromo-6-[[(1R,3R)-3-methyl-3-(methylcarbamoyl)cyclopentyl]amino]pyrazolo[3,4-d]pyrimidin-1-yl]phenyl]-1H-pyrazole-5-carboxamide] reads 25 to 200 nM; that for `CNC(=O)[C@]1(C)CC[C@@H](Nc2ncc3c(Br)nn(-c4cc(N5CCNCC5=O)c5ncccc5c4)c3n2)C1` [(1R,3R)-3-[[3-bromo-1-[8-(2-oxopiperazin-1-yl)-6-quinolyl]pyrazolo[3,4-d]pyrimidin-6-yl]amino]-N,1-dimethyl-cyclopentane-carboxamide], 25 to 200 nM. Same read-out and setting: the result for `CC(F)(F)CNC(=O)[C@@H]1CC[C@@H](Nc2ncc3c(Br)nn(-c4cc(C#N)c5ncccc5c4)c3n2)C1` [(1R,3R)-3-((3-bromo-1-(8-cyanoquinolin-6-yl)-1H-pyrazolo[3,4-d]pyrimidin-6-yl)amino)-N-(2,2-difluoropropyl)cyclopentane-1-carboxamide] reads 25 to 200 nM.

As for `Cc1nnc(-c2ccc(-n3nc(Br)c4cnc(N[C@@H]5CC[C@](C)(O)C5)nc43)cc2CCC#N)s1` [3-[5-[3-bromo-6-[[(1R,3S)-3-hydroxy-3-methyl-cyclopentyl]amino]pyrazolo [3,4-d]pyrimidin-1-yl]-2-(5-methyl-1,3,4-thiadiazol-2-yl)phenyl]propanenitrile], the IC50 lay in the range of 25 to 200 nM.

As to `CNC(=O)[C@]1(C)CC[C@@H](Nc2ncc3c(Br)nn(-c4cc(CC#N)c5nccnc5c4)c3n2)C1` [(1R,3R)-3-[[3-bromo-1-[8-(cyanomethyl)quinoxalin-6-yl]pyrazolo[3,4-d]pyrimidin-6-yl]amino]-N,1-dimethyl-cyclopentane-carboxamide], the IC50 was in the range of 25 to 200 nM. On the same count and under the same terms, the result for `CNC(=O)[C@]1(CC(F)F)CC[C@@H](Nc2ncc3c(Br)nn(-c4cc(CCO)c5ncccc5c4)c3n2)C1` [(1R,3R)-3-[[3-bromo-1-[8-(2-hydroxyethyl)-6-quinolyl]pyrazolo[3,4-d]pyrimidin-6-yl]amino]-1-(2,2-difluoroethyl)-N-methyl-cyclo-pentanecarboxamide] reads 25 to 200 nM; that for `O=S(=O)(NC1CC1)[C@@H]1CC[C@@H](Nc2ncc3c(Br)nn(-c4ccc5ncccc5c4)c3n2)C1` [(1R,3R)-3-((3-bromo-1-(quinolin-6-yl)-1H-pyrazolo[3,4-d]pyrimidin-6-yl)amino)-N-cyclopropylcyclopentane-1-sulfonamide], 25 to 200 nM.

For the compound `CNC(=O)[C@]1(C)CC[C@@H](Nc2ncc3c(Br)nn(-c4cc([C@@H](C)CO)c5ncccc5c4)c3n2)C1` [(1R,3R)-3-[[3-bromo-1-[8-[(1R)-2-hydroxy-1-methyl-ethyl]-6-quinolyl]pyrazolo[3,4-d]pyrimidin-6-yl]amino]-N,1-dimethyl-cyclo-pentanecarboxamide], the IC50 was less than 25 nM. The same measure, in the same setting: the result for `CNC(=O)CC1CC(Nc2ncc3c(Br)nn(-c4ccc(-c5nnc(C)s5)cc4)c3n2)C1` (stereo not shown) reads 25 to 200 nM; that for `CNC(=O)[C@]1(C)CC[C@@H](Nc2ncc3c(Br)nn(-c4ccc(C#N)c(CCN)c4)c3n2)C1` [(1R,3R)-3-[[1-[3-(2-aminoethyl)-4-cyano-phenyl]-3-bromo-pyrazolo[3,4-d]pyrimidin-6-yl]amino]-N,1-dimethyl-cyclopentanecarboxamide], 25 to 200 nM; that for `CNC(=O)[C@]1(C)CC[C@@H](Nc2ncc3c(Br)nn(-c4ccc5nc(N(C)C)ncc5c4)c3n2)C1`, 25 to 200 nM.

Turning to `CNC(=O)[C@]1(F)CC[C@@H](Nc2ncc3c(Br)nn(-c4cc(F)c5ncccc5c4)c3n2)C1` [(1S,3R)-3-[[3-bromo-1-(8-fluoro-6-quinolyl)pyrazolo[3,4-d]pyrimidin-6-yl]amino]-1-fluoro-N-methyl-cyclopentanecarboxamide], the IC50 lay in the range of 25 to 200 nM.

`COCCNC(=O)[C@@H]1CC[C@@H](Nc2ncc3c(Br)nn(-c4cnc5ccc(F)cc5c4)c3n2)C1` [(1R,3R)-3-((3-bromo-1-(6-fluoroquinolin-3-yl)-1H-pyrazolo[3,4-d]pyrimidin-6-yl)amino)-N-(2-methoxyethyl)cyclopentane-1-carboxamide]: the IC50 fell in the range of 500 to 1000 nM. Turning to `CNC(=O)[C@]1(C)CC[C@@H](Nc2ncc3c(Br)nn(-c4cc5cccnc5cn4)c3n2)C1` [(1R,3R)-3-[[3-bromo-1-(1,7-naphthyridin-6-yl)pyrazolo[3,4-d]pyrimidin-6-yl]amino]-N,1-dimethyl-cyclopentane-carboxamide], the IC50 was 25 to 200 nM. Same read-out and setting: the result for `O=C(NC1CCOCC1)[C@@H]1CC[C@@H](Nc2ncc3c(Br)nn(-c4ccc5ncccc5c4)c3n2)C1` [(1R,3R)-3-((3-bromo-1-(quinolin-6-yl)-1H-pyrazolo[3,4-d]pyrimidin-6-yl)amino)-N-(tetrahydro-2H-pyran-4-yl)cyclopentane-1-carboxamide] reads 25 to 200 nM. On the same count and under the same terms, the result for `Cc1nnc(-c2ccc(-n3nc(Br)c4cnc(N[C@@H]5CC[C@]6(CCNC6=O)C5)nc43)cc2CCC#N)s1` reads 25 to 200 nM. Same read-out and setting: the result for `CNC(=O)[C@]1(C)CC[C@@H](Nc2ncc3c(Br)nn(-c4ccc5c(c4)NC(=O)COC5)c3n2)C1` [(1R,3R)-3-[[3-bromo-1-(2-oxo-1,5-dihydro-4,1-benzoxazepin-8-yl)pyrazolo[3,4-d]pyrimidin-6-yl]amino]-N,1-dimethyl-cyclopentanecarboxamide] reads 25 to 200 nM; that for `O=C([C@@H]1CC[C@@H](Nc2ncc3c(Br)nn(-c4ccc5ncccc5c4)c3n2)C1)N1CC(N2CCS(=O)(=O)CC2)C1` [((1R,3R)-3-((3-bromo-1-(quinolin-6-yl)-1H-pyrazolo[3,4-d]pyrimidin-6-yl)amino)cyclo-pentyl)(3-(1,1-dioxidothiomorpholino)azetidin-1-yl)methanone], 25 to 200 nM.
